Test results published in ChEMBL document CHEMBL2169823, “cis-4-amino-L-proline residue as a scaffold for the synthesis of cyclic and linear endomorphin-2 analogues: part 2” (J Med Chem, 2012).

Legend:
[1] = molecular target: Delta-type opioid receptor (Homo sapiens, UniProt P41143); assay: Displacement of [3H]DPDPE from delta opioid receptor transfected in […] HN9.10 cells after 3 hrs by liquid scintillation counter; format: cell-based
[2] = molecular target: Delta-type opioid receptor (Mus musculus, UniProt P32300); assay: Agonist activity at delta opioid receptor in ICR mouse vas deferens assessed as inhibition of electrically-induced smooth muscle contraction after 3 mins; format: functional, tissue-based
[3] = molecular target: Mu-type opioid receptor (Cavia porcellus, UniProt P97266); assay: Agonist activity at mu opioid receptor in Hartley guinea pig ileum longitudinal muscle myenteric plexus assessed as inhibition of electrically-induced smooth muscle contraction after 3 mins; format: functional, tissue-based
[4] = molecular target: Mu-type opioid receptor (Homo sapiens, UniProt P35372); assay: Displacement of [3H]DAMGO from mu opioid receptor transfected in […] HN9.10 cells after 3 hrs by liquid scintillation counter; format: cell-based
[5] = molecular target: Kappa-type opioid receptor (Homo sapiens, UniProt P41145); assay: Displacement of [3H]U69593 from human kappa opioid receptor expressed in CHO cells after 60 mins by liquid scintillation counter; format: cell-based
[6] = molecular target: Mu-type opioid receptor (Cavia porcellus) (UniProt P97266); assay: Agonist activity at mu opioid receptor in Hartley guinea pig ileum longitudinal muscle myenteric plexus assessed as inhibition of electrically-induced smooth muscle contraction at 1 uM after 3 mins; format: functional, tissue-based
[7] = molecular target: Delta-type opioid receptor (Mus musculus) (UniProt P32300); assay: Agonist activity at delta opioid receptor in ICR mouse vas deferens assessed as inhibition of electrically-induced smooth muscle contraction at 1 uM after 3 mins; format: functional, tissue-based
Chain of Delta-type opioid receptor (Mus musculus) (P32300 whole entry): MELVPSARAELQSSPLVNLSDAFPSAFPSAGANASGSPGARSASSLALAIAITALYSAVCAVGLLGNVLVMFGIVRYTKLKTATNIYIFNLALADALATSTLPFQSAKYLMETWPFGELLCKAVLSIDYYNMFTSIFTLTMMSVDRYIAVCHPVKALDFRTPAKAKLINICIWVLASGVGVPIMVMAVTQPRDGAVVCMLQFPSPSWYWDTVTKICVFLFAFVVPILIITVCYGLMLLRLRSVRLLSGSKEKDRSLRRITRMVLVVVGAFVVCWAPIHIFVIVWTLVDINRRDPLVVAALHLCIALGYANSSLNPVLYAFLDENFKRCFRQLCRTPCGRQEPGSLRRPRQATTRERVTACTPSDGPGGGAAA

Chain of Delta-type opioid receptor (Homo sapiens, UniProt P41143) (P41143 whole entry): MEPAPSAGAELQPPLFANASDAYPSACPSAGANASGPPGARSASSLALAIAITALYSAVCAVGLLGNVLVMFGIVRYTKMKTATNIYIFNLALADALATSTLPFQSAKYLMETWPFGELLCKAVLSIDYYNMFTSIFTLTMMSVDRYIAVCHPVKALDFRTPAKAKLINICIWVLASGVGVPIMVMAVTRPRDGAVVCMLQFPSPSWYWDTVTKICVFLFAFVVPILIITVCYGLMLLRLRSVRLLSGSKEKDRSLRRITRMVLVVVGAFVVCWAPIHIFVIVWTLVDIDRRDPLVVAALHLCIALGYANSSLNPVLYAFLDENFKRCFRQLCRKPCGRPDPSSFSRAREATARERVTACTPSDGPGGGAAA
Chain of Kappa-type opioid receptor (P41145 whole entry): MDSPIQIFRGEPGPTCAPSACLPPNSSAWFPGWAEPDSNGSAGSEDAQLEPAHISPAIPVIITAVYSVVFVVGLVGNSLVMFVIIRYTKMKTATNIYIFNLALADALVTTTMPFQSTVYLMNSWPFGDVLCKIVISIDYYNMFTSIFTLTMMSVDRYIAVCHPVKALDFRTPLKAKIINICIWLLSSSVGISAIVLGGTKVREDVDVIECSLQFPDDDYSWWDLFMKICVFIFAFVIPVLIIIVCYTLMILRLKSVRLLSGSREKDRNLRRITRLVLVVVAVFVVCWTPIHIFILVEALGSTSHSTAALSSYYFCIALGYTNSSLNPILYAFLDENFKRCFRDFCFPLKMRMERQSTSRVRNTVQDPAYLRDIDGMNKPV
Chain of Mu-type opioid receptor (Homo sapiens, UniProt P35372) (P35372 whole entry): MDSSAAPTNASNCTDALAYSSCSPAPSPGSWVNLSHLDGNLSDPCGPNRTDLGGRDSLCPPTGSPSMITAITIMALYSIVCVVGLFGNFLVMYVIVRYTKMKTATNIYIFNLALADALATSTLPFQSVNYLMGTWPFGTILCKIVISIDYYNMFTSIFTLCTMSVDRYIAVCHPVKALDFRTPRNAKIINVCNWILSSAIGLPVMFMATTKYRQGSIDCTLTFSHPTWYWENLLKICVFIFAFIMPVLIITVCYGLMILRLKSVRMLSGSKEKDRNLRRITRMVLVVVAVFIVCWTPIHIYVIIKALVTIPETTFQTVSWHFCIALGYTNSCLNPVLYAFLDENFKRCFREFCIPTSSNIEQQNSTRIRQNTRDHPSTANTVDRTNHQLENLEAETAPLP
Chain of Mu-type opioid receptor (Cavia porcellus) (P97266 whole entry): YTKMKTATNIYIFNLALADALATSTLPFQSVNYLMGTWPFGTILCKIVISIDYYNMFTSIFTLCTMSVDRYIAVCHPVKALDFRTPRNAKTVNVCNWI
Chain of Mu-type opioid receptor (Cavia porcellus, UniProt P97266) (P97266 whole entry): as above
Chain of Delta-type opioid receptor (Mus musculus, UniProt P32300) (P32300 whole entry): as the sequence (P32300 whole entry) above

Row | SMILES | Ki ([1]; read-out: Ki) | IC50 [2] | IC50 [3] | Ki [4] | Ki ([5]; read-out: Ki) | inhibition [6] | inhibition [7] | Ki ([5]; cho) | Ki [1]
1 | N[C@@H](Cc1ccc(O)cc1)C(=O)N1C[C@@H]2C[C@H]1C(=O)N[C@H](Cc1ccccc1)C(=O)N[C@H](Cc1ccccc1)C(=O)N2 | 1.01 µM | 1.4 µM | 0.48 µM | 0.063 µM | > 10 µM |  |  |  | 
2 | Br.N[C@H]1C[C@@H](C(=O)N[C@H](Cc2ccccc2)C(=O)N[C@H](Cc2ccccc2)C(=O)O)N(C(=O)[C@@H](N)Cc2ccc(O)cc2)C1 | > 10 µM |  |  | > 10 µM |  | 2% | 3.6% | Not Active | 
3 | Br.NC(=O)[C@@H](Cc1ccccc1)NC(=O)[C@@H](Cc1ccccc1)NC(=O)[C@@H]1C[C@H](N)CN1C(=O)[C@@H](N)Cc1ccc(O)cc1 |  |  |  | 3.7 µM |  | 0.9% | 0% | Not Active | Not Active
4 | N[C@@H](Cc1ccc(O)cc1)C(=O)N1C[C@@H]2C[C@H]1C(=O)N[C@H](Cc1ccccc1)C(=O)N[C@@H](Cc1ccccc1)C(=O)N2 | 0.86 µM | 0.95 µM | 0.33 µM | 0.038 µM | > 10 µM |  |  |  | 
5 | Br.NC(=O)[C@H](Cc1ccccc1)NC(=O)[C@@H](Cc1ccccc1)NC(=O)[C@@H]1C[C@H](N)CN1C(=O)[C@@H](N)Cc1ccc(O)cc1 |  |  |  | 0.76 µM |  | 12% | 14% | Not Active | Not Active
6 | Br.N[C@H]1C[C@@H](C(=O)N[C@H](Cc2ccccc2)C(=O)N[C@@H](Cc2ccccc2)C(=O)O)N(C(=O)[C@@H](N)Cc2ccc(O)cc2)C1 |  |  |  | 1.01 µM |  | 11% | 3.6% | Not Active | Not Active
7 | Br.N[C@H]1C[C@@H](C(=O)N[C@@H](Cc2ccccc2)C(=O)N[C@H](Cc2ccccc2)C(=O)O)N(C(=O)[C@@H](N)Cc2ccc(O)cc2)C1 |  |  |  | 0.76 µM |  | 3.2% | 1.3% | Not Active | Not Active
8 | Br.NC(=O)[C@@H](Cc1ccccc1)NC(=O)[C@H](Cc1ccccc1)NC(=O)[C@@H]1C[C@H](N)CN1C(=O)[C@@H](N)Cc1ccc(O)cc1 |  |  | 2.3 µM | > 10 µM |  |  | 5.4% | Not Active | Not Active
